Data published in ChEMBL document CHEMBL2401727, “Searching for new antiarrhythmic agents: evaluation of meta-hydroxymexiletine enantiomers” (Eur J Med Chem, 2013).
pEC50, pIC50: −log10 of the molar value.

Tests used:
Ileum [1] = assay: Relaxtant activity in guinea pig K+-depolarized ileum longitudinal smooth muscle assessed as inhibition of calcium-induced contraction at 10^-4 M relative to control; format: functional; conditions: Cavia porcellus
Aorta [2] = assay: Vasorelaxant activity in guinea pig K+-depolarized aortic strip assessed as inhibition of calcium-induced contraction at 5 X 10^-5 M relative to control; format: functional; conditions: Cavia porcellus
[3] = Negative chronotropic activity in guinea pig spontaneously beating right atria assessed as decrease in atrial rate at 10^-5 M relative to control; format: functional, Cavia porcellus, Cardiac atrium; design: scale not given: the % may be the effect or the level left
Left cardiac atrium [4] = assay: Negative inotropic activity in guinea pig left atria assessed as decrease of 1 Hz current-induced developed tension; format: functional; conditions: Cavia porcellus
Left cardiac atrium [5] = assay: Negative inotropic activity in guinea pig left atria assessed as decrease of 1 Hz current-induced developed tension at 10^-6 M relative to control; format: functional, Cavia porcellus; design: scale not given: the % may be the effect or the level left
Heart [6] = assay: Antiarrhythmic activity in guinea pig left atria assessed as increase of threshold of 1 Hz alternating current-induced arrhythmia at 10^-6 M measured every 30 mins relative to control; format: functional, Cavia porcellus
Heart [7] = assay: Antiarrhythmic activity in guinea pig left atria assessed as increase of threshold of 1 Hz alternating current-induced arrhythmia at 1 Hz measured every 30 mins; format: functional, tissue-based; conditions: Cavia porcellus, 0.5 h
Ileum [8] = assay: Relaxtant activity in guinea pig K+-depolarized ileum longitudinal smooth muscle assessed as inhibition of calcium-induced contraction; format: functional, tissue-based; conditions: Cavia porcellus
Aorta [9] = assay: Vasorelaxant activity in guinea pig K+-depolarized aortic strip assessed as inhibition of calcium-induced contraction at 10^-4 M relative to control; format: functional; conditions: Cavia porcellus
Left cardiac atrium [10] = assay: Negative inotropic activity in guinea pig left atria assessed as decrease of 1 Hz current-induced developed tension at 5 X 10^-5 M relative to control; format: functional, Cavia porcellus; design: scale not given: the % may be the effect or the level left
Heart [11] = assay: Antiarrhythmic activity in guinea pig left atria assessed as increase of threshold of 1 Hz alternating current-induced arrhythmia at 10^-4 M measured every 30 mins relative to control; format: functional, Cavia porcellus
[12] = Elimination half life in human; conditions: in vivo

SMILES	inhibition at 100 µM (Ileum [1]) [%]	inhibition at 50 µM (Aorta [2]) [%]	Activity [3] [%]	pEC50 (Left cardiac atrium [4])	Activity (Left cardiac atrium [5]) [%]	%max (Heart [6]) [%]	pEC50 (Heart [7])	pIC50 (Ileum [8])	inhibition at 100 µM (Aorta [9]) [%]	Activity (Left cardiac atrium [10]) [%]	%max (Heart [11]) [%]	half-life [12] [min]
Cc1ccc(O)c(C)c1OC[C@@H](C)N	47	1	34	7.60	89	66	6.25	–	–	–	–	–
Cc1ccc(O)c(C)c1OC[C@H](C)N	75	–	16	6.92	–	–	–	4.87	4	93	13	–
Cc1ccc(O)c(C)c1OCC(C)N (racemic)	51	–	–	–	–	–	–	4.59	–	–	–	–
Cc1cccc(C)c1OCC(C)N (centres undefined) [MEXILETINE]	81	–	–	–	–	–	–	5.07	–	–	–	600
